“Also recorded” adds a separate entry of the source. Where two headings read alike, the source gives them in different places.
Assays:
[1] = tested on: L. major spt2^− promastigotes; experiment: microbe, parasite or virus in culture; format: cell-based, Leishmania major; settings: for EC50: Leishmania major, 48 h, read-out: EC50 in spt2^−; for EC50 (WT)/EC50 (spt2^−): ratio
Procedure: (§1) Log phase L. major LV39 WT and spt2 promastigotes were inoculated at 1.0×10^5 cells/ml and culture densities were determined 48 hours later.
(§2) Wild type (WT) L. major LV39 clone 5 (Rho/SU/59/P), FV1 (MOHM/IL/80/Friedlin virulent clone 1), spt2^− (Δspt2::HYG/Dspt2::PAC), ads1^− (Δads1::HYG/Dads1::SAT), and spt2^−/+SPT2 (Δspt2::HYG/Dspt2::PAC/+pXG-SPT2) cells were grown in M199 with 10% FBS and supplements as described [Zhang, et al., 2003; Kapler, et al., 1990]. For growth inhibition assays, promastigotes were inoculated at 1.0×10^5 cells/ml (in T25 flasks, 5 ml of medium per flask) in various concentrations of drugs. All cultures contained equivalent amount of DMSO or methanol (0.1% or less, from drug stocks). After 48 or 96 (for ads1^− only) hours, culture densities were determined using a Coulter counter (Z1, Beckman) and effects of drugs on growth were assessed in relative to cultures grown in the absence of drugs.

[2] = tested on: L. major LV39 WT promastigotes; experiment: microbe, parasite or virus in culture; format: cell-based, Leishmania major; settings: for EC50: Leishmania major
Procedure: as §1, §2
A classical isobologram was constructed by plotting EC50s of drugs either alone or in combination.

[3] = tested on: L. major spt2^− promastigotes; experiment: Flagellar localization of FcaBP-HA (immunofluorescence), spt2^− promastigotes; format: cell-based, Leishmania major; settings: concentration 5˜10 times of EC50 for 20 hours, data not shown
[4] = tested on: L. major ads1^− promastigotes; experiment: Growth inhibition assay, EPL-null ads1^− mutant versus FV1 WT; format: cell-based, Leishmania major; settings: 96 hours for ads1^−
Procedure: as §2

[5] = tested on: L. major LV39 WT promastigotes; experiment: Detergent resistant membrane fractions (insoluble GP63), WT promastigotes; format: cell-based, Leishmania major
Procedure: (§3) Detergent resistant membrane fractions (DRMs) were prepared using Triton X-100 from L. major promastigotes as previously described [Zhang, et al., 2003. Such DRMs are usually enriched for raft-associated materials and have been used to characterize rafts [London, et al., 2000; Brown, et al., 1998]. A typical marker for a raft in Leishmania parasites is GP63, a GPI-anchored metalloprotease, which can be detected from DRM samples by western-blot [Zhang, et al., 2003].
(§4) Here WT and spt2^− parasites were grown in various concentrations of ITZ (0.001 nM to 1 μM) or CLT (10 nM to 5 μM). Effects of ITZ and CLT on growth, sterol composition and DRM were analyzed after 48 hours. Basically, culture densities were determined using a particle counter and drugs' effects on growth were assessed in comparison to control cells (no drug); sterol lipids were extracted and analyzed by GC/MS and the percentage of 14-methylfecosterol (among all detectable sterol lipids) was used to reflect changes in sterol composition (see Table 2). […]
(§5) Detergent resistant membrane fractions (DRMs) were isolated and a western blot with a monoclonal antibody again Leishmania GP63 #235 was performed as previously described [Zhang, et al., 2003]. Percentages of GP63 in soluble and insoluble fraction after extractions at 4° C. were determined using a Fuji FLA5000 phosphoimager.

[6] = tested on: L. major spt2^− promastigotes; experiment: Composition of free sterols by GC/MS, spt2^− promastigotes; format: cell-based, Leishmania major; settings: 48 hours
Procedure: (§6) Log phase L. major LV39 WT and spt2^− promastigotes were grown in the presence or absence of ITZ or CLT. Culture densities were determined 48 hours later and total lipids were extracted and the composition of free sterols was determined by GC/MS as described in Materials and Methods. ND: not detectable. Each experiment was repeated at least 3 times and results from one representative set were shown.
(§7) Here WT and spt2^− parasites were grown in various concentrations of ITZ (0.001 nM to 1 μM) or CLT (10 nM to 5 μM). Effects of ITZ and CLT on growth, sterol composition and DRM were analyzed after 48 hours. Basically, culture densities were determined using a particle counter and drugs' effects on growth were assessed in comparison to control cells (no drug); sterol lipids were extracted and analyzed by GC/MS and the percentage of 14-methylfecosterol (among all detectable sterol lipids) was used to reflect changes in sterol composition (see Table 2). DRMs were also isolated and the percentage of GP63 that were insoluble at 4° C. was used as an indicator for the integrity of DRM (see FIG. 2). Two to four independent experiments were performed and the averaged results were plotted in FIG. 3.
(§8) Total lipids were extracted using the Folch's method [Folch, et al., 1957]. Briefly, promastigotes were harvested by centrifugation and washed once with PBS. Pellets were resuspended in chloroform:methanol (2:1) at 1.0×10^8 cells/ml with the addition of cholesta-3,5-diene (Sigma-Aldrich, FW 368.7) at 0.5 mg/10^8 cells (6.6×10^7/cell). After vortexing for 30 s, cell debris was removed by centrifugation (1000 g for 10 min) and samples were washed with 0.2 volume of 0.9% NaCl. After centrifugation, supernatants were removed and the organic phase solutions were dried under a stream of nitrogen. Samples were then dissolved in chloroform:methanol (1:2) at 1.0×10^9 cells/ml.
(§9) Electron impact gas chromatography/mass spectrometry (GC/MS) analyses of sterol lipids were performed on a Finnigan (San Jose, Calif.) SSQ-7000 single-stage quadrupole mass spectrometer with a Varian (Walnut Creek, Calif.) 3400 GC, which is controlled by Finnigan ICIS software operated on a DEC alpha station. The extracts in solution […] were injected in a splitless mode and analyzed by GC on a Restek (Bellefonte, Pa.) RTX-5 column (15 m, 0.33 mm id, […]). The initial temperature of GC was set at 80° C. for 1 min, increased to 220° C. at a rate of 50° C./min, and then raised to a final temperature of 280° C. at a rate of 10° C./min. The temperatures of the injector, transfer line of the GC column, and of the ion-source were set at 280° C., 280° C., and 240° C., respectively. The full scan mass spectra (50 to 500 Dalton) were acquired at a rate of 1 scan/0.25 Sec.

[7] = tested on: L. major LV39 WT promastigotes; experiment: Composition of free sterols by GC/MS, WT promastigotes; format: cell-based, Leishmania major; settings: 48 hours
Procedure: as §6, §7, §8, §9

[8] = tested on: L. major spt2^− promastigotes; experiment: Detergent resistant membrane fractions (insoluble GP63), spt2^− promastigotes; format: cell-based, Leishmania major
Procedure: as §3, §4, §5

[9] = tested on: Leishmania amastigotes growing in murine macrophages; experiment: Amastigotes growing in murine macrophages; format: cell-based; settings: preliminary results, data not shown
[10] = 48 h, LV39 WT promastigotes, 48 hours, read-out: EC50 in WT

SMILES: CN(C/C=C/C#CC(C)(C)C)Cc1cccc2ccccc12 [Terbinafine]
- EC50 [1]: 3.3 µM
- EC50 (WT)/EC50 (spt2^−) [1]: 1.3
- Selectivity against spt2^− parasites (in words) ([1]; spt2^− versus LV39 WT): did not cause the extreme hypersensitivity
- EC50 [2, 10]: 4.3 µM
- Mislocalization of FcaBP-HA [3]: did not show such defect
- Sensitivity of ads1^− mutant in comparison to FV1 WT [4]: very similar EC50s; also recorded: little or no selectivity

SMILES: CCC(C)n1ncn(-c2ccc(N3CCN(c4ccc(OCC5COC(Cn6cncn6)(c6ccc(Cl)cc6Cl)O5)cc4)CC3)cc2)c1=O (centres unmarked) [Itraconazole]
- EC50 [1]: 0.0039 µM
- EC50 (WT)/EC50 (spt2^−) [1]: 282
- Growth (%) ([1]; spt2^− + 1 nM ITZ, 48 hours): 64.6%
- Growth (%) ([1]; spt2^− + 5 nM ITZ, 48 hours): 29.4%
- proliferation, % of control ([1]; spt2^−, 1˜10 nM ITZ, 48 hours): 28˜67%
- EC50 [2, 10]: ~1.1 µM
- EC50 ([2]; LV39 WT grown in the presence of 10 μM MYR, read-out: EC50 for ITZ in WT + 10 μM myriocin): ~0.0046 µM
- EC50 ([2]; read-out: EC50 of ITZ in combination with 25 μM MYR): 0.00092 µM
- EC50 ([2]; read-out: EC50 of ITZ in combination with […] MYR): 0.131 µM
- Growth (%) ([2]; WT + 1 nM ITZ, 48 hours): 91.5%
- Growth (%) ([2]; WT + 5 nM ITZ, 48 hours): 81.6%
- growth, % of control ([2]; WT, 1˜10 nM ITZ, 48 hours): 75˜95%
- ITZ concentration significantly inhibiting growth and DRM stability in WT ([5]; WT parasites): more than 100 nM
- GP63 in DRM ([5]; WT, 1˜10 nM ITZ, 4° C., 50˜55% in control cells): 40˜55%
- 5-dehydroepisterol (%) ([6]; spt2^− + 1 nM ITZ): 3.7%
- 14-methylfecosterol (%) ([6]; spt2^− + 1 nM ITZ): 59.4%
- Cholesterol (%) ([6]; spt2^− + 1 nM ITZ): 22.0%
- Episterol (%) ([6]; spt2^− + 1 nM ITZ): 1.6%
- Ergosterol (%) ([6]; spt2^− + 1 nM ITZ): 13.2%
- Lanosterol (%) ([6]; spt2^− + 1 nM ITZ): 0.1%
- Total sterols/cell ([6]; spt2^− + 1 nM ITZ): 4.0 × 10^8 /cell
- 5-dehydroepisterol (%) ([6]; spt2^− + 5 nM ITZ): 2.1%
- 14-methylfecosterol (%) ([6]; spt2^− + 5 nM ITZ): 75.2%
- Cholesterol (%) ([6]; spt2^− + 5 nM ITZ): 17.1%
- Episterol (%) ([6]; spt2^− + 5 nM ITZ): 0.4%
- Ergosterol (%) ([6]; spt2^− + 5 nM ITZ): 4.0%
- Lanosterol (%) ([6]; spt2^− + 5 nM ITZ): 1.2%
- Total sterols/cell ([6]; spt2^− + 5 nM ITZ): 4.4 × 10^8 /cell
- endogenous sterols ([6]; spt2^−, 1˜10 nM ITZ): 4˜6%
- 5-dehydroepisterol (%) ([7]; WT + 1 nM ITZ): 9.6%
- 14-methylfecosterol (%) ([7]; WT + 1 nM ITZ): 62.3%
- Cholesterol (%) ([7]; WT + 1 nM ITZ): 2.9%
- Episterol (%) ([7]; WT + 1 nM ITZ): 0.9%
- Ergosterol (%) ([7]; WT + 1 nM ITZ): 24.3%
- Total sterols/cell ([7]; WT + 1 nM ITZ): 2.0 × 10^8 /cell
- 5-dehydroepisterol (%) ([7]; WT + 5 nM ITZ): 1.7%
- 14-methylfecosterol (%) ([7]; WT + 5 nM ITZ): 92.2%
- Cholesterol (%) ([7]; WT + 5 nM ITZ): 3.2%
- Ergosterol (%) ([7]; WT + 5 nM ITZ): 2.9%
- Total sterols/cell ([7]; WT + 5 nM ITZ): 3.3 × 10^8 /cell
- 14-methylfecosterol among all sterols ([7]; WT, 1˜10 nM ITZ): 80˜92%
- endogenous sterols ([7]; WT, 1˜10 nM ITZ): 4˜6%
- ITZ concentration causing significant reduction of insoluble GP63 at 4° C. ([8]; spt2^− parasites): higher than 1 nM
- GP63 in DRM ([8]; spt2^−, 1˜10 nM ITZ, 4° C., 45˜50% in control cells): 24˜28%

SMILES: CCCCCCC(=O)CCCCCC/C=C/C[C@@H](O)[C@H](O)[C@@](N)(CO)C(=O)O [MYR, myriocin]
- EC50 [2, 10]: ~55 µM
- EC50 ([2]; LV39 WT, 750 nM ITZ, read-out: EC50 of MYR in combination with 750 nM ITZ): 1.5 µM
- EC50 ([2]; read-out: EC50 for MYR in the presence of 0.5 μM ITZ, LV39 WT, 500 nM ITZ): ~1.8 µM
- EC50 ([2]; read-out: EC50 of MYR in combination with 250 nM ITZ, LV39 WT, 250 nM ITZ): 2.2 µM
- Sensitivity of ads1^− mutant in comparison to FV1 WT [4]: hypersensitive
- Effect of MYR on the efficacy of ITZ on amastigotes [9]: does not improve the efficacy of ITZ

Reference: patent publication US20080119483A1, “COMPOSITIONS AND METHODS FOR INHIBITING PROTOZOAN GROWTH” (priority 2006, published 2008)
